{
  "source": "patent US20180353524A1",
  "about": "“CANCER TREATMENT USING 2-DEOXY-2-FLUORO-L-FUCOSE IN COMBINATION WITH A CHECKPOINT INHIBITOR” (SEATTLE GENETICS, INC., priority 2015, published 2018)",
  "test_system": "CMV reactive human PMBCs",
  "experiment": "In vitro 2FF and anti-PD1 antibody combination in human PBMCs (IFNγ, IL12p70)",
  "conditions": "1 μg/mL anti-PD1 (Pembrolizumab) added to co-culture of 2FF matured T-cells, DCs and CMV antigen",
  "procedure": "CMV reactive human PMBCs from a CMV positive donor (Astarte™ Biologics) were thawed, plated into a 6-well plate and cultured overnight in DC media (30% DMEM 70% X-vivo+2 mM glutamax+10% ATB serum+1% PS). The following day the supernatant was collected to isolate T-cells and the adhering cells were washed in media and then replenished with 2 mL media supplemented with IL4 (100 ng/μL) and GMCSF (200 ng/μL) per well to differentiate and proliferate the adhering monocytes into DCs. The plate was incubated for 4-5 days and then cells were moved into a T25 flask. Each time the cells were passaged (every 2-3 days) new cytokines were given. The T-cells in the supernatant were isolated using StemSep human T-cell enrichment kit (Stemcell technologies). The T-cells were then resuspended in T-cell media (RPMI+10% Fetal calf serum, 1% PS) and spilt into two T25 flasks (with or without 100-200 μM 2FF). CD3CD28 antibody coated beads (Miltenyi Biotec) (20 μL/flask) were added to activate the T-cells. After 24 h IL2 was added (100 ng/μL). Each time the cells were passaged new IL2 and 2FF were added. […]\nIFNγ and IL12p70 in the supernatants from 5 day co-cultures were measured using a Lumenix assay and the concentration of each cytokine was calculated using an internal standard curve.",
  "data": [
    {"substance": "Pembrolizumab [anti-PD1, reference compound]", "values": [
      {"measurement": "antigen specific response (IFNγ, IL12p70) of 2FF matured T-cells on addition of anti-PD1", "result": "further enhances the antigen specific response"}
    ]}
  ]
}
